We go through four substances from paper PMC9482650, “Quantitative fragmentomics allow affinity mapping of interactomes” (Nature Communications, 2022).

The subject of assay [1] is Jurkat cell extract preys. Description: PDZ-AP-MS, biotinylated MBP-PDZ baits. It counts as binding, human. Here is the method: (§1) For PDZ-AP-MS experiments, PDZ domains were cloned as His6-AviTag-MBP-PDZ constructs. For co-expression with BirA, E. coli BL21(DE3) cells were co-transformed with His6-AviTag-MBP, or His6-AviTag-MBP-PDZ-coding and PET21a-BirA (Addgene #20857) plasmids. Simultaneously to IPTG induction, 50 µM biotin was added to the media. After cell harvesting, the lysis buffer was also supplemented with 50 µM biotin. Otherwise, expression and double affinity purification was identical as previously described in details.
(§2) For PBM-AP-MS experiments, 30 μl streptavidin resin was mixed with biotin or peptide at 50–60 μM concentration in 6–6.5 resin volume for 60 min to achieve resin saturation. For PDZ-AP-MS experiments, 30 μl streptavidin resin was mixed with biotinylated MBP or MBP-PDZ at 40-50 μM concentration in >1000× resin volume for 60 min to achieve resin saturation. After saturation, resins were washed a single time (ten resin volume, holdup buffer), and were depleted with biotin (1 mM biotin, 5–10 resin volume, 10 min). Finally, resins were washed two times. 0.5 ml 2 mg/ml cell lysate was added to the dry resin (1 mg total input) and were incubated at 4 °C for 2 h. Then, the beads were washed three times with 10 resin volume buffer containing: 50 mM TRIS pH 8.5, 150 mM NaCl, 1% TritonX-100, 10× complete EDTA-free protease inhibitor cocktail, 2 mM EDTA, 1 mM TCEP. Then, the beads were washed two times with ten resin volume buffer containing: 50 mM TRIS pH 8.5, 150 mM NaCl, 1 mM TCEP. Finally, captured protein was eluted from the resin in two steps and the eluted fractions were pooled. For each elution the beads were incubated for 30 min with three resin volume buffer containing: 20 mM TRIS pH8.5, 100 mM NaCl, 500 μM TCEP, 8 M Urea. Between each step, the beads were separated by mild centrifugation and the supernatant was removed by gentle pipetting.
(§3) The samples were precipitated with TCA 20% overnight at 4 °C and centrifuged at 14,000 rpm for 10 min at 4 °C. The protein pellets were washed twice with 1 mL cold acetone and air dried. The protein extracts were solubilized in urea 8 M, reduced with 5 mM TCEP for 30 min, and alkylated with 10 mM iodoacetamide for 30 min in the dark. Double digestion was performed at 37 °C with 500 ng endoproteinase Lys-C for 4 h, followed by fourfold dilution and an overnight digestion with 500 ng trypsin. Peptide mixtures were then desalted on C18 spin-column and dried on Speed-Vacuum.
(§4) Samples were analyzed using an Ultimate 3000 nano-RSLC (Thermo Scientific, San Jose California) coupled in line with a LTQ-Orbitrap ELITE mass spectrometer via a nano-electrospray ionization source (Thermo Scientific, San Jose California). […]

The test system of a further assay is HaCat cell extract preys. Description: PDZ-AP-MS, biotinylated MBP-PDZ baits. Format: binding, human. The procedure: as §1, §2, §3, §4
The test system of assay [2] is CASK. Description: PBM-AP-MS from HaCat extract. It counts as binding, Homo sapiens. The settings on record: prey CASK (O14936), PBM bait vs biotin control (Biot03).
For the next assay, the system named is MAGI3. Briefly: PBM-AP-MS from HaCat extract. Format: binding, Homo sapiens. The settings on record: prey MAGI3 (Q5TCQ9), PBM bait vs biotin control (Biot03). The source says:
(§5) Supplement 41467_2022_33018_MOESM5_ESM.xlsx, sheet "HaCat HPV59-E6" | column: -LOG(P-value); Difference log2; Ratio HPV59E6/Biot03

For assay [3], the system named is MPP5. Briefly: PBM-AP-MS from HaCat extract. The settings on record: prey MPP5 (Q8N3R9), PBM bait vs biotin control (Biot03). It counts as binding, Homo sapiens.
Source text: as §5

The test system of assay [4] is LIN7C. Briefly: PBM-AP-MS from HaCat extract. The settings on record: prey LIN7C (Q9NUP9), PBM bait vs biotin control (Biot03). It counts as binding, Homo sapiens.
In the next assay the test system is DLG1. Description: PBM-AP-MS from Jurkat extract. Format: binding, Homo sapiens. Here is the method:
as §2
(§6) Proteins were identified by database searching using SequestHT (Thermo Fisher Scientific) with Proteome Discoverer 2.4 software (PD2.4, Thermo Fisher Scientific) on human FASTA database downloaded from SwissProt (reviewed, release 2020_11_27, 20304 entries, https://www.uniprot.org/). Precursor and fragment mass tolerances were set at 7 ppm and 0.6 Da respectively, and up to two missed cleavages were allowed. Oxidation (M, +15.995 Da) was set as variable modification, and Carbamidomethylation (C, +57.021 Da) as fixed modification. Peptides and proteins were filtered with a false discovery rate at 1%. Label-free quantification was based on the extracted ion chromatography intensity of the peptides. All samples were measured in technical triplicates. The measured extracted ion chromatogram (XIC) intensities were normalized based on median intensities of the entire dataset to correct minor loading differences. For statistical tests and enrichment calculations, not detectable intensity values were treated with an imputation method, where the missing values were replaced by random values similar to the 10% of the lowest intensity values present in the entire dataset. Unpaired two-tailed T-test, assuming equal variance, were performed on obtained log2 XIC intensities. The detection threshold for enriched proteins in AP-MS experiments were analyzed above twofold enrichment with <0.01 P value. Then, proteins with PDZ-domains or PBMs were extracted from the list of enriched proteins. In case only a specific isoform of the detected protein contains a PBM, the identified peptide fragments were manually checked to check which isoform(s) were most likely detected. All raw LC-MS/MS data (from 165 runs) have been deposited to the ProteomeXchange via the PRIDE database with identifier PXD027743.

The subject of assay [5] is SCRIB. Briefly: PBM-AP-MS from Jurkat extract. Format: binding, Homo sapiens. Here is the method:
as §2, §6

The test system of a further assay is MAGI1. Description: PBM-AP-MS from Jurkat extract. Format: binding, Homo sapiens. Here is the method: as §2, §6
Assay [6] relates to LIN7C. Briefly: PBM-AP-MS from Jurkat extract. It counts as binding, Homo sapiens. The procedure:
as §2, §6

Assay [7] deals with MPP5. Briefly: PBM-AP-MS from Jurkat extract. Format: binding, Homo sapiens. The settings on record: prey MPP5 (Q8N3R9), PBM bait vs biotin control. The source says:
Supplement 41467_2022_33018_MOESM5_ESM.xlsx, sheet "Jurkat HPV59-E6" | column: -LOG(P-Value); Difference log2; Ratio HPV59/biot

For the next assay, the system named is MPP7. Description: PBM-AP-MS from HaCat extract. Format: binding, Homo sapiens. The settings on record: prey MPP7 (Q5T2T1), PBM bait vs biotin control (Biot03).
Assay [8] has as its system LIN7C. Description: PBM-AP-MS from HeLa extract. It counts as binding, Homo sapiens. The settings on record: prey LIN7C (Q9NUP9), PBM bait vs biotin control.
The next assay deals with SLC9A3R2. Description: PBM-AP-MS from HaCat extract. It counts as binding, Homo sapiens. The settings on record: prey SLC9A3R2 (Q15599), PBM bait vs biotin control (Biot03).
In another assay the test system is SNTB2. Description: PBM-AP-MS from HeLa extract. It counts as binding, Homo sapiens. The settings on record: prey SNTB2 (Q13425), PBM bait vs biotin control.
Another assay deals with SYNJ2BP. Description: PBM-AP-MS from HaCat extract. Format: binding, Homo sapiens. The settings on record: prey SYNJ2BP (P57105), PBM bait vs biotin control (Biot03).
Assay [9] has as its system SCRIB. Briefly: PBM-AP-MS from HeLa extract. It counts as binding, Homo sapiens. The settings on record: prey SCRIB (Q14160), PBM bait vs biotin control.
The next assay deals with CPVL. Briefly: PBM-AP-MS from HeLa extract. Format: binding, Homo sapiens. The settings on record: prey CPVL (Q9H3G5), PBM bait vs biotin control.
Assay [10] has as its system CASK. Description: PBM-AP-MS from Jurkat extract. It counts as binding, Homo sapiens. The settings on record: Jurkat lysate. Here is the method: as §2, §6
Another assay deals with PDZK1. Briefly: PBM-AP-MS from HeLa extract. It counts as binding, Homo sapiens. The settings on record: prey PDZK1 (Q5T2W1), PBM bait vs biotin control.
[11] abbreviates: Jurkat extract, prey DLG1 (Q12959), PBM bait vs biotin control.
Setting [12] is: Jurkat extract, prey SCRIB (Q14160), PBM bait vs biotin control.
Setting [13] is: Jurkat extract, prey MAGI1 (Q96QZ7), PBM bait vs biotin control.
Where [14] appears, read: Jurkat extract, prey LIN7C (Q9NUP9), PBM bait vs biotin control.
Where [15] appears, read: fold enrichment of prey vs biotin control resin, Jurkat lysate.
Where [16] appears, read: prey enrichment on PBM bait resin vs biotin control resin, Jurkat lysate, technical triplicates.

Primed or numbered codes have the meaning given here. Ends that are not written are not given here. * marks the point of attachment. Biotin = O=C1N[C@H]2[C@H](CS[C@H]2CCCCC(=O)*)N1; ttds″ = trioxatridecan-succinamic acid linker

Turning to ANXA2, the “Difference log2” value in [1] (bait SCRIB_2 PDZ vs MBP, enrichment of prey) is on record as 5.895. Further, in [1] (bait SCRIB_2 PDZ, fold change of prey), the “Ratio SCRIB_2/MBP” value is listed as 59.5253.
Turning to EXOC1, in the assay on HaCat cell extract preys (bait DLG1_2 PDZ vs MBP, enrichment of prey), the “Difference log2” value is listed as 4.458. The “Ratio DLG1_2/MBP” value in the assay with HaCat cell extract preys (bait DLG1_2 PDZ, fold change of prey) is 21.9853.
As for HPV59-E6 ({Biotin-ttds″}-QRQARSETLV), the “Difference log2” value in the assay with CASK [2] was 7.278; in the assay on MAGI3, 2.908; with MPP5 [3], 3.6952; in the assay with LIN7C [4], 8.47; with DLG1 (setting [11]), 9.078; in the assay with SCRIB [5] (setting [12]), 4.363. In addition, the “Difference log2” value with MAGI1 (setting [13]) is recorded as 6.509; with LIN7C [6] (setting [14]), 5.541; in the assay on MPP5 [7], 4.755; with MPP7 it was 5.592. The “Ratio bait/Biot03” value with CASK [2] is given as 155.163; with MAGI3, 7.505; in the assay on MPP5 [3] it was 12.9528; in the assay with LIN7C [4], 354.524; in the assay with MPP7, 48.2208. Further, the Ratio bait/biot in the assay on DLG1 (setting [11]) amounted to 540.448; with SCRIB [5] (setting [12]) it was 20.5739; in the assay with MAGI1 (setting [13]) it was 91.0533; with LIN7C [6] (setting [14]), 46.5688; with MPP5 [7], 26.9941.
As to SSRTRRETQL [HPV16-E6], the “Difference log2” value with CASK [2] is 6.666; in the assay with LIN7C [8], 7.182; in the assay on SLC9A3R2 it was 3.853; with LIN7C [4], 8.385; with SNTB2 it was 5.25; in the assay on SYNJ2BP, 4.095. For the same substance, the “Difference log2” value worked out at 7.71 with SCRIB [9]; 4.342 in the assay with CPVL; 8.9727 with DLG1 (setting [16]); 3.498 in the assay with CASK [10] (prey enrichment on PBM bait resin vs biotin control resin, technical triplicates); 8.0041 with SCRIB [5] (setting [16]); 5.2023 with MAGI1 (setting [16]). For the same substance, the “Difference log2” value in the assay on LIN7C [6] (setting [16]) came to 5.002; in the assay on MPP7, 5.9997; with PDZK1, 4.4. The “Ratio bait/Biot03” value in the assay with CASK [2] was determined as 101.558; in the assay with SLC9A3R2, 14.4499; in the assay with LIN7C [4], 334.203; in the assay on SYNJ2BP, 17.0893; with MPP7, 63.9865. The “Ratio bait/biot” value in the assay with LIN7C [8] is recorded as 145.232; in the assay on SNTB2, 38.0503; with SCRIB [9] it was 209.394; in the assay with CPVL, 20.282; in the assay on DLG1 (setting [15]), 502.402; with CASK [10] (fold enrichment of prey vs biotin control resin), 11.3007. For the same substance, the Ratio bait/biot in the assay with SCRIB [5] (setting [15]) amounted to 256.729; in the assay on MAGI1 (setting [15]) it was 36.8169; in the assay on LIN7C [6] (setting [15]), 32.0459; in the assay with PDZK1, 21.1168.
